ChEMBL document CHEMBL1143379, “Isolation, structure elucidation and cytotoxic evaluation of endiandrin B from the Australian rainforest plant Endiandra anthropophagorum” (Bioorg Med Chem, 2009)
Calls of active or inactive are those of the source. The rule behind the calls is not given here.

Legend:
[1] = system: A549; test: Induction of early stage apoptosis in human A549 cells assessed as mitotracker dye uptake at 30 uM after 24 hrs; assay type: functional, cell-based
[2] = system: A549; test: Cytotoxicity against human A549 cells at 100 uM; assay type: functional
[3] = system: A549; test: Cytotoxicity against human A549 cells after 24 hrs by propidium iodide assay; assay type: functional, cell-based; settings: A549, 24 h
[4] = system: A549; test: Cytotoxicity against human A549 cells after 24 hrs by YO-PRO-1 assay; assay type: functional, cell-based; settings: A549, 24 h
[5] = system: A549; test: Induction of early stage apoptosis in human A549 cells assessed as mitotracker dye uptake; assay type: functional, cell-based

| Structure (SMILES) | inhibition at 100 µM [2] [%] | IC50 [3] | IC50 [4] | other results |
| --- | --- | --- | --- | --- |
| COc1ccc([C@@H]2[C@@H](C)[C@@H](C)[C@@H]2c2ccc(OC)c(OC)c2)cc1OC [CINBALANSAN] | 34 | – | – | Activity [1]: Active |
| COc1cc([C@@H]2[C@@H](C)[C@@H](C)[C@@H]2c2ccc(O)c(OC)c2)ccc1O [ENDIANDRIN B] | 75 | – | – | – |
| COc1cc2c(c(OC)c1OC)-c1ccc(OC)c(=O)cc1[C@@H](NC(C)=O)CC2 [COLCHICINE] | – | 0.0108 µg/mL | 0.0108 µg/mL | – |
| COc1cc([C@@H]2[C@@H](C)[C@H](C)[C@H]2c2ccc(O)c(OC)c2)ccc1O [ENDIANDRIN A] | 76 | – | – | – |
| COC[C@H]1OC(=O)c2coc3c2[C@@]1(C)C1=C(C3=O)[C@@H]2CCC(=O)[C@@]2(C)C[C@H]1OC(C)=O [WORTMANNIN] | – | 0.00428 µg/mL | 0.00428 µg/mL | – |
| CC(=O)O[C@H]1C(=O)[C@@]2(C)[C@H]([C@H](OC(=O)c3ccccc3)[C@]3(O)C[C@H](OC(=O)[C@H](O)[C@@H](NC(=O)c4ccccc4)c4ccccc4)C(C)=C1C3(C)C)[C@]1(OC(C)=O)CO[C@@H]1C[C@@H]2O [PACLITAXEL] | – | – | 0.0196 µg/mL | – |
| COc1cc(C[C@@H](C)[C@H](C)Cc2ccc(O)c(OC)c2)ccc1O [(-)-DIHYDROGUAIARETICACID] | – | 7.49 µM | 7.49 µM | IC50 [5]: 31.2 µM |
